Data as given in US8946294B2, “Crystalline diacylhydrazine and the use thereof” (Intrexon Corporation, priority 2011, dated 2015).

Key:
[1] = biological target: C. fumiferana EcR (CfEcR-DEF) (Choristoneura fumiferana, UniProt O77240); assay: Cellular gene-switch assay, WT-Cf EcR, luciferase reporter; format: cell-based; details: NIH3T3 cells
Method: (§1) Cellular gene-switch assays were performed by transfecting the following constructs in mouse embryonic fibroblast cells (NIH3T3). The wild-type D-, E-, and F-domains from a) C. fumiferana EcR (CfEcR-DEF), and b) C. fumiferana EcR with a E274V/V390I/Y410E mutation (VY-CfEcR-DEF), were fused to a GAL4-DBD and placed under the control of the CMV promoter in a pBIND vector (Promega Corporation, Madison, Wis., USA). A chimeric RXR from Homo sapiens RXRb and Locusta migratoria RXR fused to VP16-AD and under the control of an SV40e promoter has previously described. (See, Kothapalli et al., Dev. Genet. 17:319-330 (1995); Palli, et al., FEBS J. 272:5979-5990 (2005); and U.S. Pat. No. 7,935,510 B2). The inducible luciferase reporter plasmid, pFRLuc, (Stratagene Cloning Systems, La Jolla, Calif., USA) contains five copies of the GAL4 response element and a synthetic minimal promoter.
(§2) Under standard assay conditions, Compound 1 was tested at 8 doses from 0.01-33 μM and the final DMSO concentration was 0.33% in both control and treatment wells. When necessary, Compound 1 was tested at lower concentrations. After a 48-hour post-treatment and transfection incubation, the cells were assayed for luciferase activity using the Bright-GloTM Luciferase Assay System (Promega Corporation, Madison, Wis., USA) following the manufacturer's instructions. […]

[2] = biological target: C. fumiferana EcR with a E274V/V390I/Y410E mutation (VY-CfEcR-DEF) (Choristoneura fumiferana, UniProt O77240); assay: Cellular gene-switch assay, VY-Cf EcR, luciferase reporter; format: cell-based; details: NIH3T3 cells
Method: as §1, §2

[3] = Reinvestigation of Form IX sample by PXRD and FT-Raman; format: physicochemical; details: PXRD and FT-Raman spectroscopy
Method: 198 mg of Compound 1 Form I-A was dissolved in 0.2 mL acetone and 2.0 mL of cyclohexane. The solution was stirred at 5° C. for 4 hours than evaporated at 5° C. for 2 hours to obtain a precipitate. The precipitate was collected by filtration and dried under vacuum for 1 hour to give Form IX (FIGS. 29 and 30). […] The sample was likely incompletely dried but might also correspond to a cyclohexane solvate.

[4] = Dynamic vapor sorption (DVS) hygroscopicity; format: physicochemical; details: for water content gained: from 0% relative humidity to 85% r.h.
Excerpt: Projekt Messtechnik SPS11-100n multi-sample water vapor sorption analyzer or Surface Measurement Systems Ltd. DVS-1 water vapour sorption analyzer. The sample was allowed to equilibrate at 50% r.h. before starting a pre-defined humidity program.
Program: 50% r.h.→0% r.h.→95% r.h.→50% r.h., Δr.h.=5%/h
Hygroscopicity was classified as follows: • deliquescent sufficient water is absorbed to form a liquid • very hygroscopic increase of the mass is ≧15% • hygroscopic increase of the mass is less than 15% and greater than or equal to 2% • slightly hygroscopic increase of the mass is less than 2% and greater than or equal to 0.2% • not hygroscopic increase of the mass is less than 0.2% Thermogravimetry Coupled to Fourier-Transform Infrared Spectroscopy (TG-FTIR): […]

[5] = Storage under CO2 atmosphere and 75-76% relative humidity; format: physicochemical; details: open container, 1 month; for hydrate (Form IV) or CO2 adduct formation: 1 bar CO2, 75-76% relative humidity; for Form after storage: 1 bar CO2, over saturated NaCl solution (75-76% relative humidity)
[6] = Mechanical stability (IR press and grinding, PXRD); format: physicochemical; details: pressed with 10 metric tons for 30 min; vigorously ground
Method: (§3) Two types of experiments elucidated the mechanical stability of Compound 1 Form II. First, about 200 mg of Form II was pressed in an IR press with a force of 10 metric tons (13 mm diameter of pellet) for 30 min. The resulting pellets were analyzed by PXRD. Second, about 150 mg of Form II was vigorously ground and analyzed by PXRD.
as §3, with “1 Form III. First, about” for “1 Form II. First, about”, “of Form III was vigorously” for “of Form II was vigorously”

[7] = Suspension equilibration of Form I-A in non-solvate forming solvents; format: physicochemical; details: at 5° C. and room temperature
Method: 109 mg of Compound 1 Form I-A was suspended in 2.0 mL of cyclohexane and sonicated. After stirring for 14 days at room temperature, the solid was collected by filtration and dried under vacuum for 30 minutes to give Form III.
105 mg of Compound 1 Form I-A was suspended in 0.7 mL of 3:2 (v/v) n-heptane/toluene and sonicated. After stirring for 16 days at 5° C., the solid was collected by filtration and dried under vacuum for 30 minutes to give Form III.
102 mg of Compound 1 Form I-A was suspended in 0.7 mL of 10:1 (v/v) n-heptane/toluene and sonicated. After stirring for 16 days at 5° C., the solid was collected by filtration and dried under vacuum for 30 minutes to give Form III.
115 mg of Compound 1 Form I-A was suspended in 0.7 mL of 1:10 (v/v) n-heptane/toluene and sonicated. After stirring for 16 days at 5° C., the solid was collected by filtration and dried under vacuum for 30 minutes to give Form III.

[8] = Solvent-based stability tests in water/methanol; format: physicochemical; details: for Relative stability of polymorphic forms: all three temperatures (25, 45, 55° C.); for Form: 6:4 MeOH:water, at least three days
Excerpt: A mixture of Compound 1 Forms II, III, IV, and V was slurried in various compositions of methanol/water, or in water, for at least three days at different temperatures.

[9] = Solid state stability at 60-65° C.; format: physicochemical; details: closed cap vial
Method: Compound 1 Form II, Compound 1 Form III, and compound 1 Form IV were stored at 60-65° C. in a closed cap vial for various lengths of time. Compound 1 Forms II and III remained unchanged under these conditions. Compound 1 Form IV is converted to a mixture of Forms II and III after 10 days at 60-65C.

[10] = Solvent-based stability tests in n-heptane/toluene; format: physicochemical; details: 3:2 (v/v) n-heptane:toluene, 6 days
Method: The thermodynamic stability of Form II and Form III as a function of temperature was investigated by suspension equilibration experiments.
54.6 mg of Compound 1 Form III and 61.2 mg of Compound 1 Form II were suspended in […] of 3:2 (v/v) n-heptane:toluene and sonicated. […] In this experiment the starting material likely took up ambient humidity to give Form IV.
18.5 mg of Compound 1 Form III and 28.0 mg of Compound 1 Form II were suspended in 0.4 mL of 3:2 (v/v) n-heptane:toluene and sonicated. After stirring at 60° C. for 6 days the solid was collected by filtration to give Form II.
35.4 mg of Compound 1 Form III and 46.1 mg of Compound 1 Form II were suspended in 0.4 mL of 3:2 (v/v) n-heptane:toluene and sonicated.
40.5 mg of Compound 1 Form III and 45.7 mg of Compound 1 Form II were suspended in 0.4 mL of 3:2 (v/v) n-heptane:toluene and sonicated. After stirring at 55° C. for 6 days the solid was collected by filtration to give Form II.
The solvent-based experiments are in principle thermodynamic stability tests between Compound 1 Forms II and III because mixtures of both forms were suspended. Below 45° C. […] Above 55° C. […] At 50° C. a mixture of both Form II and Form III was obtained in 3:2 (v/v) n-heptane:toluene. This is not unexpected. Close to the transition temperature, the thermodynamic driving force would be expected to be very small leading to slow transition rates. Possibly the kinetics of transformation were too slow for the transformation to occur on the timescale of the experiment. According to these suspension equilibration experiments, Form II and Form III are enantiotropic polymorphs. The thermodynamic transition temperature between Form II and Form III is between 45° C. and 55° C.

[11] = Solvent-based stability tests in n-heptane/ethanol; format: physicochemical; details: 95:5 heptane:ethanol
Method: Compound 1 Form II, Compound I Form III, or a mixture of Compound 1 Forms II and III were slurried in 95:5 heptane:ethanol (anhydrous). After one day at various temperatures, a portion of the slurry was filtered and analyzed by XRPD. A solution mediated transition occurs at 45-47° C. in 95:5 heptane:ethanol. Below 45° C.

[12] = 48-hour incubation, luciferase activity
[13] = maximum fold induction relative to a positive control

With `CCC[C@@H](N(NC(=O)c1cccc(OC)c1CC)C(=O)c1cc(C)cc(C)c1)C(C)(C)C` [Compound 1, (R)-3,5-dimethyl-benzoic acid N-(1-tert-butyl-butyl)-N′-(2-ethyl-3-methoxy-benzoyl)-hydrazide] the EC50 [1, 12] was 1.8 nM, the “Rel Max FI” value [1, 13] was 0.99 and the EC50 [2, 12] was 0.133 nM. For the same compound, the “Rel Max FI” value [2, 13] was 0.88.
In the case of `CCC[C@@H](N(NC(=O)c1cccc(OC)c1CC)C(=O)c1cc(C)cc(C)c1)C(C)(C)C` [Compound 1 Form IX, (R)-3,5-dimethyl-benzoic acid N-(1-tert-butyl-butyl)-N′-(2-ethyl-3-methoxy-benzoyl)-hydrazide], the “Form on reinvestigation of the sample” value [3] is reported as “spontaneously transformed into Form II”.
With `CCC[C@@H](N(NC(=O)c1cccc(OC)c1CC)C(=O)c1cc(C)cc(C)c1)C(C)(C)C` [Compound 1 Form III, (R)-3,5-dimethyl-benzoic acid N-(1-tert-butyl-butyl)-N′-(2-ethyl-3-methoxy-benzoyl)-hydrazide] the “Hygroscopicity (DVS)” value [4] was “non- to slightly-hygroscopic”, the water content gained [4] was 0.1 wt.-% and the “hydrate (Form IV) or CO2 adduct formation” value [5] was “no indication of hydrate (Form IV) or CO2 adduct formation”. The Form after storage [5] was “unchanged Form III”, the “Change in crystalline form after mechanical treatment (PXRD)” value [6] was “no change in crystalline form” and the “Relative stability of forms” value [7] was “more stable than Form II”.
In the case of `CCC[C@@H](N(NC(=O)c1cccc(OC)c1CC)C(=O)c1cc(C)cc(C)c1)C(C)(C)C` [Compound 1 Form IV, (R)-3,5-dimethyl-benzoic acid N-(1-tert-butyl-butyl)-N′-(2-ethyl-3-methoxy-benzoyl)-hydrazide], the “Relative stability of polymorphic forms” value ([8]; methanol content of less than 60% volume) is reported as “most stable polymorphic form”, the Form after storage ([9]; 3 days) is reported as “II, III, and IV” and the Form after storage ([9]; 10 days) is reported as “II and III”. The Form after storage ([9]; 18 days) was “II and III”.
With `CCC[C@@H](N(NC(=O)c1cccc(OC)c1CC)C(=O)c1cc(C)cc(C)c1)C(C)(C)C` [Compound 1 Form V, (R)-3,5-dimethyl-benzoic acid N-(1-tert-butyl-butyl)-N′-(2-ethyl-3-methoxy-benzoyl)-hydrazide] the “Relative stability of polymorphic forms” value ([8]; methanol content of more than 60% volume) was “most stable polymorphic form”.
In the case of `CCC[C@@H](N(NC(=O)c1cccc(OC)c1CC)C(=O)c1cc(C)cc(C)c1)C(C)(C)C` [Compound 1 Forms II, III, IV, and V, (R)-3,5-dimethyl-benzoic acid N-(1-tert-butyl-butyl)-N′-(2-ethyl-3-methoxy-benzoyl)-hydrazide], the Form ([8]; 45° C.) is reported as “IV and V” and the Form ([8]; 55° C.) is reported as “IV and V”.
In the case of `CCC[C@@H](N(NC(=O)c1cccc(OC)c1CC)C(=O)c1cc(C)cc(C)c1)C(C)(C)C` [Compound 1 Form II, (R)-3,5-dimethyl-benzoic acid N-(1-tert-butyl-butyl)-N′-(2-ethyl-3-methoxy-benzoyl)-hydrazide], the “Hygroscopicity (DVS)” value [4] is reported as “non- to slightly-hygroscopic”, the water content gained [4] is reported as 0.1 wt.-% and the “hydrate (Form IV) or CO2 adduct formation” value [5] is reported as “no indication of hydrate (Form IV) or CO2 adduct formation”. The Form after storage [5] was “unchanged Form II” and the “Change in crystalline form after mechanical treatment (PXRD)” value [6] was “no change in crystalline form”.
For `CCC[C@@H](N(NC(=O)c1cccc(OC)c1CC)C(=O)c1cc(C)cc(C)c1)C(C)(C)C` [Compound 1 Forms II and III, (R)-3,5-dimethyl-benzoic acid N-(1-tert-butyl-butyl)-N′-(2-ethyl-3-methoxy-benzoyl)-hydrazide], the Form obtained ([10]; 45° C.) was “mixture of Form III and Form IV”, the Form obtained ([10]; 50° C.) was “mixture of Form II and Form III” and the Form obtained ([10]; 55° C.) was “Form II”. For the same compound, the Form obtained ([10]; 60° C.) was “Form II” and the “solution mediated transition temperature” value [11] was 45-47 °C.
